# Experimental data published in ChEMBL document CHEMBL5465560, “Selectivity Literature for EUbOPEN Chemogenomic Library” (2024).
# Key:
# [1] = tested on: Tyrosine-protein kinase ABL1 (Homo sapiens), P00519 [H396P]; assay: Selectivity interaction (KinomeScan (DiscoverX)) EUB0000229b ABL1; conditions: at 1 µM
# [2] = molecular target: Mitogen-activated protein kinase kinase kinase kinase 5 (Homo sapiens) (UniProt Q9Y4K4); assay: Selectivity interaction (KinomeScan (DiscoverX)) EUB0001550a MAP4K5; conditions: at 1 µM
# [3] = molecular target: Ribosomal protein S6 kinase alpha-1 (Homo sapiens, UniProt Q15418); conditions: at 10 µM
# [4] = molecular target: T1, Mitogen-activated protein kinase kinase kinase 2 (Homo sapiens) (UniProt Q9Y2U5); conditions: at 10 µM
# T1 sequence (whole entry): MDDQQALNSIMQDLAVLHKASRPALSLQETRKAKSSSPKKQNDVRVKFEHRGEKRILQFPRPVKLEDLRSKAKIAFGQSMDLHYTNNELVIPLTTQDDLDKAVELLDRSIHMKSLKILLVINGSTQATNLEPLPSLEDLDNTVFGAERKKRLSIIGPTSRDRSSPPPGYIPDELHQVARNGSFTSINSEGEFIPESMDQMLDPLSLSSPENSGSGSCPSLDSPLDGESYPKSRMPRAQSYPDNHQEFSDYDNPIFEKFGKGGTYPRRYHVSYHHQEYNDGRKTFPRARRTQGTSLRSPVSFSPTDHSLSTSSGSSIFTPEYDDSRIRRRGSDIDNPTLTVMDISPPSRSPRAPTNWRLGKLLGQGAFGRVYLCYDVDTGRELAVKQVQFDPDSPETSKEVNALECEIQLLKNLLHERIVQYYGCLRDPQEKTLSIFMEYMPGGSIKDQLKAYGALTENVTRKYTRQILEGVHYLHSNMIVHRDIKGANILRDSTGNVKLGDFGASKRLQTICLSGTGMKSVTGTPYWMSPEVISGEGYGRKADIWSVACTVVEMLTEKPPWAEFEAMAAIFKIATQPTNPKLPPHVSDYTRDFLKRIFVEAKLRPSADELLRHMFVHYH
# [5] = molecular target: Serine/threonine-protein kinase 26 (Homo sapiens, UniProt Q9P289); assay: Selectivity interaction (ActivX KiNativ screen (kinase selectivity in THP-1 cell lysates)) EUB0000639a STK26; format: subcellular; conditions: lysate, at 5 µM
# [6] = molecular target: T2, Protein arginine N-methyltransferase 7 (Homo sapiens) (UniProt Q9NVM4); assay: Selectivity interaction (Methyltransferase screen (radiometric assays, panel of 8 PRMTs, 21 protein lysine methyltransferases, 3 DNA methyltransferases, and one RNA methyltransferase)) EUB0000271b PRMT7
# T2 sequence (whole entry): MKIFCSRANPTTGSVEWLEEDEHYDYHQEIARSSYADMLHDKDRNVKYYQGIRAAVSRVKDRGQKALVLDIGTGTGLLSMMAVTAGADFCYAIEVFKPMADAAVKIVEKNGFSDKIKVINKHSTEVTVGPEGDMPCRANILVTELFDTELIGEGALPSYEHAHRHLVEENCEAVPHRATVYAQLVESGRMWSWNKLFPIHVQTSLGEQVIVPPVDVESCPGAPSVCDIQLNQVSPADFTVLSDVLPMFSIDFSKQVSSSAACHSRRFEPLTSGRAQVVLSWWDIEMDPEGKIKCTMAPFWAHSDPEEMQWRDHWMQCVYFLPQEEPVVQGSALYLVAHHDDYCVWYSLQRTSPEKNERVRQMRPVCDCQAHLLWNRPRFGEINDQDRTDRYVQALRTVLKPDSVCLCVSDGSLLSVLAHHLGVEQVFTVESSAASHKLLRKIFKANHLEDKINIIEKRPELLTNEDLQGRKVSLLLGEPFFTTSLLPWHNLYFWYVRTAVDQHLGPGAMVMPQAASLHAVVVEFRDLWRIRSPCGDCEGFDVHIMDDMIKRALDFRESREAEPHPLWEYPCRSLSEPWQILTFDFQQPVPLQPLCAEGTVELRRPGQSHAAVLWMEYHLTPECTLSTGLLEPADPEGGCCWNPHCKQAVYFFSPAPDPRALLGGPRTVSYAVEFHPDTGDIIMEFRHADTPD
# [7] = molecular target: T3, Rhodopsin kinase GRK1 (Homo sapiens) (UniProt Q15835); assay: Selectivity interaction (KinomeScan (DiscoverX)) EUB0000695a GRK1; conditions: at 100 nM
# T3 sequence (whole entry): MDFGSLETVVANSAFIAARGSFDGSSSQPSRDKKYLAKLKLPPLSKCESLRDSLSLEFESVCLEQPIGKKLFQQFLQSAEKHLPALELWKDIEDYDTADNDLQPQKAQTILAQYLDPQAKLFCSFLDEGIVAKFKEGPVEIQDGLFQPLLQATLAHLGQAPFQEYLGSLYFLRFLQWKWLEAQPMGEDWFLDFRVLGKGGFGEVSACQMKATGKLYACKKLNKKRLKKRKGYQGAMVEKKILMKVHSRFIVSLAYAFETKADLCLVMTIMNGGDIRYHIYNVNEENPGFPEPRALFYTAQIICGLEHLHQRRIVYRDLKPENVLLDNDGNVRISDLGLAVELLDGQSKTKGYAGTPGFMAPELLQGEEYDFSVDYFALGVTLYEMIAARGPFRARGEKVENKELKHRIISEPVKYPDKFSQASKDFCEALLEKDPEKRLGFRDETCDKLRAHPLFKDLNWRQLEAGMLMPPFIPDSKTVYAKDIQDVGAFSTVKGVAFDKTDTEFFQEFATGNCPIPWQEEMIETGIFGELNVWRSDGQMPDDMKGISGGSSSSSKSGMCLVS
# [8] = molecular target: Tyrosine-protein kinase Fer (Homo sapiens) (UniProt P16591); assay: Selectivity interaction (KinomeScan (DiscoverX)) EUB0000695a FER; conditions: at 100 nM
# [9] = molecular target: T4, Myotonin-protein kinase (Homo sapiens) (UniProt Q09013); assay: Selectivity interaction (KinomeScan (DiscoverX)) EUB0000618a DMPK; conditions: at 10 µM
# T4 sequence (whole entry): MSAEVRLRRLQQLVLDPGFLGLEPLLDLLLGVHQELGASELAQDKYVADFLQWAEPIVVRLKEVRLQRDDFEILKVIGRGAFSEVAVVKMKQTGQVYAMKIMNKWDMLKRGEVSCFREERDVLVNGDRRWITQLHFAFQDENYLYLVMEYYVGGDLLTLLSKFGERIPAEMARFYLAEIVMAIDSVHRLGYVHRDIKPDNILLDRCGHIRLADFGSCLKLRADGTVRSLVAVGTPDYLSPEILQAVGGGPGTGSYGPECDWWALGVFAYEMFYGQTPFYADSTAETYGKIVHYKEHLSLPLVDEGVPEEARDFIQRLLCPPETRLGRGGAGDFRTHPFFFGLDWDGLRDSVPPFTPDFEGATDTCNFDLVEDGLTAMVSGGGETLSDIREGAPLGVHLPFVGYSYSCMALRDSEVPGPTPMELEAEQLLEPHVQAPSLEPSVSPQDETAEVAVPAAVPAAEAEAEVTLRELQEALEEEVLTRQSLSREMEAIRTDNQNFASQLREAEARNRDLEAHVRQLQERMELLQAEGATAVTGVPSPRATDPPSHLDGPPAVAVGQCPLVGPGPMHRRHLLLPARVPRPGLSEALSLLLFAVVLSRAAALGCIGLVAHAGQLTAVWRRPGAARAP
# Chain of Serine/threonine-protein kinase 26 (Q9P289 2-416 limits assumed): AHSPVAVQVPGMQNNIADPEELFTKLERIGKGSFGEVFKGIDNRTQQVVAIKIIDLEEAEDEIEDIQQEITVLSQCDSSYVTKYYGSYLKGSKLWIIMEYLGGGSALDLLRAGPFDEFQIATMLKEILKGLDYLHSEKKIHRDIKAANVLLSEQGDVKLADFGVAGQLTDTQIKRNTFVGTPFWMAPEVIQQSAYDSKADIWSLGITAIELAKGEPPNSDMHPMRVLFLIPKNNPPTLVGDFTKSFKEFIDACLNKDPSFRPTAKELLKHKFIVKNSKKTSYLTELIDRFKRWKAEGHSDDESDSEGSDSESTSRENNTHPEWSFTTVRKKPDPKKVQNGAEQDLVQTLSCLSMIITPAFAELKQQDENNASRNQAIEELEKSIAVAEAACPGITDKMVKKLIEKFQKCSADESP
# Chain of Mitogen-activated protein kinase kinase kinase kinase 5 (Homo sapiens) (Q9Y4K4 whole entry, looked up): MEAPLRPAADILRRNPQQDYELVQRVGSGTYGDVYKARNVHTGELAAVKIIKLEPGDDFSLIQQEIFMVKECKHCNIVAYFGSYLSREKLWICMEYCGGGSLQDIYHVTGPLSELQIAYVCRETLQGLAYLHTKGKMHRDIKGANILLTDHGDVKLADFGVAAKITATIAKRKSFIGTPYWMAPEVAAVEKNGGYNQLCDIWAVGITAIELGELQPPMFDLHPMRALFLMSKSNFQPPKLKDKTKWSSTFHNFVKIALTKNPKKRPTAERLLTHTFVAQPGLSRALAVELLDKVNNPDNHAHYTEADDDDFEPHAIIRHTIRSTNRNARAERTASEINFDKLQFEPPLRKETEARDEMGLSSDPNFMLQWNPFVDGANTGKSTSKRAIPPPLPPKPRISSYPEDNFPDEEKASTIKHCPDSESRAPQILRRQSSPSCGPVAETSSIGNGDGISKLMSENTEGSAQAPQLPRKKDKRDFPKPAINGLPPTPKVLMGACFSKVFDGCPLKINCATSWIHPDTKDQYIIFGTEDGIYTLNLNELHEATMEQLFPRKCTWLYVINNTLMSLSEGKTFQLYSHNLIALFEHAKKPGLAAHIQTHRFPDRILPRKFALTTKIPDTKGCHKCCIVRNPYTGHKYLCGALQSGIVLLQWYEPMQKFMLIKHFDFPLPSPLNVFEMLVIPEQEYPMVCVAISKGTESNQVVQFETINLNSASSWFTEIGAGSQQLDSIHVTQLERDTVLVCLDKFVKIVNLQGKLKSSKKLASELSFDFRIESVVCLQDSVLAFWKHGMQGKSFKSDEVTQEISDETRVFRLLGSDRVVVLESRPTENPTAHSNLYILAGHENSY
# Chain of Ribosomal protein S6 kinase alpha-1 (Q15418 whole entry): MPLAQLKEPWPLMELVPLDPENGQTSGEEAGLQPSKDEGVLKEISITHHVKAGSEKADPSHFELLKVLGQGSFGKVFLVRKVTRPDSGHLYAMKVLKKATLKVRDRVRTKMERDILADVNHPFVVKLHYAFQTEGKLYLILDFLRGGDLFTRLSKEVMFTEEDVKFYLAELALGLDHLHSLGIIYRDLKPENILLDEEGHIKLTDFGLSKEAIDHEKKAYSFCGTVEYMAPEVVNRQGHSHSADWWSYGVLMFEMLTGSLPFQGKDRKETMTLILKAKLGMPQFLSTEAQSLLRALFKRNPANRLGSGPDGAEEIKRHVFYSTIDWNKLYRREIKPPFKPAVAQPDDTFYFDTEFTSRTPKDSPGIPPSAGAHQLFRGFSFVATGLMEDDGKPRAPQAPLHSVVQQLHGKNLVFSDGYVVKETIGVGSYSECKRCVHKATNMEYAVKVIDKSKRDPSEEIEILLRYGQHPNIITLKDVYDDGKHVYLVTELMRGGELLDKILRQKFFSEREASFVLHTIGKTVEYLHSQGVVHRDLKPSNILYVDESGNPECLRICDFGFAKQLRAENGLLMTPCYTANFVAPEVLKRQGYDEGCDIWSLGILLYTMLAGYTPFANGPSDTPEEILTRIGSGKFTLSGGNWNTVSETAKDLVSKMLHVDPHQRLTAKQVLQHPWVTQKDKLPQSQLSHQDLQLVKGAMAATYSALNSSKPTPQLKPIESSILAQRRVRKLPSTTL
# Chain of Tyrosine-protein kinase Fer (Homo sapiens) (P16591 whole entry, looked up): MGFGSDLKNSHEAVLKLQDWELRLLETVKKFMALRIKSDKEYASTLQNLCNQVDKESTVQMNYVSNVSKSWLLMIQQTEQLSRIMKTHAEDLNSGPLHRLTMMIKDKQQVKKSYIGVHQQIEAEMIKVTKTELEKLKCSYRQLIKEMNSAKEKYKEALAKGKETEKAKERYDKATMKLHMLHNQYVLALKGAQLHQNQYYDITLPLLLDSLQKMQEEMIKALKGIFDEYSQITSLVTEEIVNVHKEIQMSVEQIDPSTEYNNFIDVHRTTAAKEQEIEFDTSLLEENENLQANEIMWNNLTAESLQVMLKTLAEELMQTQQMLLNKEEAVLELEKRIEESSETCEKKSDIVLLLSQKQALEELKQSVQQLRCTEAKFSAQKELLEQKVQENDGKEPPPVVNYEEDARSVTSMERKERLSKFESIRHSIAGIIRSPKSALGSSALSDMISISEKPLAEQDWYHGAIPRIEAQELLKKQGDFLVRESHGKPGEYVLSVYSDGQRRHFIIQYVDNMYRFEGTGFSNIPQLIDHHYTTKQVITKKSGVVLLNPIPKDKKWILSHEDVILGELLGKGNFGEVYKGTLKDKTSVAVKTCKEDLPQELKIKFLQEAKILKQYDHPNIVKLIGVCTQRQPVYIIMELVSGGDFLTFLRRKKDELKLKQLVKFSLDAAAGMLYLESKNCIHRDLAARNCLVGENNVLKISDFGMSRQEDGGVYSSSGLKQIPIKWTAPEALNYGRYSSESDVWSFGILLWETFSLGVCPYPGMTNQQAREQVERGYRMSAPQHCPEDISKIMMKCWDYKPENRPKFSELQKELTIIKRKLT
smiles,measurement,setting,value
COc1cc(N(C)c2ccnc3ccc(C(F)(F)F)cc23)cc(OC)c1OC,% binding,[1],78%
CN(C)CC#Cc1ccc2[nH]c3c(c2c1)-c1nc(N)ncc1CCC3,% of control,[2],96%
Cc1cc([C@@H](C)Nc2ccccc2C(=O)O)c2nc(N3CCOCC3)cc(=O)n2c1 [AZD-6482],% of control,[3],84%
same,% of control,[4],100%
CC[C@@H]1[C@H](F)C(=O)N[C@@H]1COc1nccc2cc(C(N)=O)c(OC)cc12 [ZIMLOVISERTIB],% of inhibition,[5],21.8%
Cc1cc(C)cc([C@@H]2c3cc(C)ccc3NC(=O)CN2C(=O)c2ccc(Br)s2)c1,% of activity,[6]; at 1 µM,97.7%
same,% of activity,[6]; at 10 µM,103%
Cc1cc(F)c(C(=O)Nc2cccc(-c3nncn3C(C)C)n2)cc1-n1cnc(C2CC2)c1,% of control,[7],100%
same,% of control,[8],72%
O[C@H]1CC[C@H](Nc2ncc3nc(Nc4c(F)cc(F)cc4F)n([C@H]4CCOC4)c3n2)CC1,% of control,[9],100%
